Source: patent US20050267133A1, “Pyrazolopyrimidines as kinase inhibitors” (priority 2002, published 2005)

How the values were obtained:
GSK-3β = GSK-3β (Homo sapiens, UniProt P49841); test: GSK3 scintillation proximity assay (SPA) kinase assay; format: biochemical; settings: 20 nM kinase, 2.5 uM ATP, biotinylated glycogen synthase peptide, 40 minutes at room temperature; -log IC50 in Molar; read-out: GSK-3 pIC50 (converted)
Source text: The phosphorylated biotinylated peptide is then captured onto streptavidin coated scintillation proximity assay (SPA) beads from Amersham Technology, where the signal from the ^33P is amplified via the scintillant contained in the beads.
GSK-3β is commercially available or may be cloned and expressed in E. coli using standard techniques to produce soluble, active protein. The production of active protein involves purification in two steps using Metal Chelate and Ion Exchange Chromatography. Protein eluting from Ion Exchange provides >90% pure product that may then be concentrated for use in high throughput screening.
The kinase was assayed at a concentration of 20 nM final in 100 mM HEPES, pH 7.2 containing 10 mM magnesium chloride, 0.1 mg/mL bovine serum albumin, 1 mM dithiothreitol, 0.3 mg/mL heparin, 2.8 uM peptide substrate, 2.5 uM ATP, and 0.2 uCi/well [[…]-^33P]-ATP. After 40 minutes incubation at room temperature, the reaction was stopped by addition of 100 mM EDTA and […] in 100 mM HEPES, pH7.2 followed by an additional solution of diluted Streptavidin coated SPA beads in PBS, pH 7.2 to give a final concentration of 0.25 mg of beads per assay well in a 96-well microtiter plate.
10 mM stock solutions of the compounds of the invention in 100% DMSO are generated as a first step in the screening process. The second step involves the creation of dose response plates where these compounds are diluted 10-fold in 100% DMSO to 1 mM concentrations and subsequently serially diluted 3-fold in 100% DMSO across the plate by automated liquid handling such that the final top concentration of inhibitor is 0.033 mM in the 30 uL kinase assay. The third step involves the creation of the assay plates. This is achieved by transferring 1 uL of the compounds to assay plates by automated liquid handling. The fourth step is to perform the assay as described and count the resulting plates in the Packard TopCount NXT microplate scintillation and luminescence counter.
The final step is data acquisition and analysis where IC50 values are generated for each compound by normalizing curve data to the equation 100*(U1−C2)/(C1−C2) (where U1 is the cpm value, C2 is the background, and C1 is the maximum number of counts), then fitting the normalized data to the equation y=Vmax*(1−(x/(K+x))). The IC50 values were converted to pIC50 values, i.e., −log IC50 in Molar concentration. The data is expressed below in Table 1.

[1] = molecular target: T1, GST-TIE2 (intracellular domains of human TIE2) (Homo sapiens, UniProt Q02763); test: TIE-2 Enzyme Assay (TIE2-E), LANCE method; format: biochemical; settings: preactivated GST-TIE2, 1 μM D1-15 peptide, 80 uM ATP, 30 mins at room temperature; pIC50 = -log IC50 in Molar
T1 construct: made in house
Source text: The TIE-2 enzyme assay used the LANCE method (Wallac) and GST-TIE2, baculovirus expressed recombinant constructs of the intracellular domains of human TIE2 (amino acids 762-1104, GenBank Accession # L06139) tagged by GST). The method measured the ability of the purified enzymes to catalyse the transfer of the γ-phosphate from ATP onto tyrosine residues in a biotinylated synthetic peptide, D1-15 (biotin-C6-LEARLVAYEGWVAGKKKamide). This peptide phosphorylation was detected using the following procedure: for enzyme preactivation, GST-TIE2 was incubated for 30 mins at room temperature with 2 mM ATP, 5 mM MgCl2 and 12.5 mM DTT in 22.5 mM HEPES buffer (pH7.4). Preactivated GST-TIE2 was incubated for 30 mins at room temperature in 96 well plates with 1 μM D1-15 peptide, 80 uM ATP, 10 mM MgCl2, 0.1 mg/ml BSA and the test compound (diluted from a 10 mM stock in DMSO, final DMSO concentration was 2.4%) in 1 mM HEPES (pH7.4). The reaction was stopped by the addition of EDTA (final concentration 45 mM). Streptavidin linked-APC (allophycocyanin, Molecular Probe) and Europium-labeled anti-phosphorylated tyrosine antibody (Wallac) were then added at the final concentration of 17 μg/well and 2.1 μg/well, respectively. The APC signal was measured using an ARVO multilabel counter. (Wallac Berthold Japan). The percent inhibition of activity was calculated relative to blank control wells.
The concentration of test compound that inhibits 50% of activity (IC50) was interpolated using nonlinear regression (Levernberg-Marquardt) and the equation, y=Vmax (1−x/(K+x))+Y2, where “K” was equal to the IC50. The IC50 values were converted to pIC50 values, i.e., −log IC50 in Molar concentration.
Test compounds are employed in free or salt form.

Sequence of GSK-3β (P49841 whole entry, species assumed): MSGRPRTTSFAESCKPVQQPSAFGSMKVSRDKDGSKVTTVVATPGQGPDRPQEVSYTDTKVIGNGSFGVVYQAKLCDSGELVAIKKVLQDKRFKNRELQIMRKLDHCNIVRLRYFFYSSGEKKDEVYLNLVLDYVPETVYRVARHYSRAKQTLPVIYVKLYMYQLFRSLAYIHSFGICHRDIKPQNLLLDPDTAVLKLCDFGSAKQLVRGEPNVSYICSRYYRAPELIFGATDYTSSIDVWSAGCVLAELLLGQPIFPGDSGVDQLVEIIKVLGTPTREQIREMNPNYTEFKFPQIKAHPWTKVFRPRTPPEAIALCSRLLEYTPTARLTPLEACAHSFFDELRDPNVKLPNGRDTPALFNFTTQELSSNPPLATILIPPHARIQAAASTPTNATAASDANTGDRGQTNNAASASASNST
T1 sequence (Q02763 762-1104): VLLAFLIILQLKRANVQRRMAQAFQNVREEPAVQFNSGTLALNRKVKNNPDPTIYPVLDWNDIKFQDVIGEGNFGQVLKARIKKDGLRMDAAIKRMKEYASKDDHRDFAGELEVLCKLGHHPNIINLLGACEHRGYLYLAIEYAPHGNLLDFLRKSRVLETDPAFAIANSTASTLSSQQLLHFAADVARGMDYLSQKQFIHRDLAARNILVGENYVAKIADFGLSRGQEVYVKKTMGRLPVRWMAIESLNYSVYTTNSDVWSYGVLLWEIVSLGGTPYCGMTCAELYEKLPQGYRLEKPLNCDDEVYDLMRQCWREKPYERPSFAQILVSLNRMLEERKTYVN

Row | IC50 (GSK-3β) [nM] | IC50 [1] [nM] | SMILES
1 | 1000 to 10000 | 100 to 1000 | CCOc1cc(/C=N/Nc2ncnc3c2cnn3-c2ccccc2)cc(Br)c1O [Example 46, 3-Bromo-4-hydroxy-3-ethoxybenzaldehyde (1-phenyl-1H-pyrazolo[3,4-d]pyrimidin-4-yl)hydrazone]
2 | 100 to 1000 | 100 to 1000 | COc1ccc(/C=N/Nc2ncnc3c2cnn3-c2ccccc2)cc1OC [Example 56, 3,4-Dimethoxybenzaldehyde [1-(phenyl)-1H-pyrazolo[3,4-d]pyrimidin-4-yl]hydrazone]
3 | 100 to 1000 | 100 to 1000 | O=C(O)/C=C/c1ccc(/C=N/Nc2ncnc3c2cnn3-c2ccccc2)cc1 [Example 61, 4-Formylcin namic acid [1-(phenyl)-1H-pyrazolo[3,4-d]pyrimidin-4-yl]hydrazone]
4 | < 100 | 100 to 1000 | COc1cc(/C=N/Nc2ncnc3c2cnn3-c2ccccc2)cc(O)c1OC [Example 7, 3-Hydroxy-4,5-dimethoxybenzaldehyde (1-phenyl-1H-pyrazolo[3,4-d]pyrimidin-4-yl)hydrazone]
5 | 100 to 1000 | 100 to 1000 | O=C(O)c1ccc(/C=N/Nc2ncnc3c2cnn3-c2ccccc2)cc1 [Example 24, 4-{(E)-[(1-phenyl-1H-pyrazolo[3,4-d]pyrimidin-4-yl)hydrazono]methyl}benzoic Acid]
6 | 100 to 1000 | 100 to 1000 | O=C(NCCN1CCCC1)c1ccc(/C=N/Nc2ncnc3c2cnn3-c2ccccc2)cc1 [Example 34, 4-{(E)-[(1-phenyl-1H-pyrazolo[3,4-d]pyrimidin-4-yl)hydrazono]methyl}-N-(2-pyrrolidin-1-ylethyl)benzamide]
7 | 100 to 1000 | 100 to 1000 | CN1CCN(CCCNC(=O)c2ccc(/C=N/Nc3ncnc4c3cnn4-c3ccccc3)cc2)CC1 [Example 37, N[3-(4-Methylpiperazin-1-yl)propyl]-4-{(E)-[(1-phenyl-1H-pyrazolo[3,4-d]pyrimidin-4-yl)hydrazono]methyl}benzamide]
8 | < 100 | 100 to 1000 | O=C(NCCCN1CCCC1)c1ccc(/C=N/Nc2ncnc3c2cnn3-c2ccccc2)cc1 [Example 26, 4-{(E)-[(1-phenyl-1H-pyrazolo[3,4-d]pyrimidin-4-yl)hydrazono]methyl}-N-(3-pyrrolidin-1-ylpropyl)benzamide]
9 | 100 to 1000 | 100 to 1000 | COCCN1CCN(C(=O)c2ccc(/C=N/Nc3ncnc4c3cnn4-c3ccccc3)cc2)CC1 [Example 36, 4-{[4-(2-methoxyethyl)piperazin-1-yl]carbonyl}benzaldehyde (1-phenyl-1H-pyrazolo[3,4-d]pyrimidin-4-yl)hydrazone]
10 | 100 to 1000 | 1000 to 10000 | NCCNC(=O)c1ccc(/C=N/Nc2ncnc3c2cnn3-c2ccccc2)cc1 [Example 31, N-(2-Aminoethyl)-4-{(E)-[(1-phenyl-1H-pyrazolo[3,4-d]pyrimidin-4-yl)hydrazono]methyl}benzamide]
11 | 100 to 1000 | 100 to 1000 | CCN(CC)CCOc1ccc(/C=N/Nc2ncnc3c2cnn3-c2ccccc2)cc1 [Example 60, 4-(2-(Diethylamino)-ethoxy)-benzaldehyde [1-(phenyl)-1H-pyrazolo[3,4-d]pyrimidin-4-yl]hydrazone]
12 | 100 to 1000 | 100 to 1000 | OCc1cc(/C=N/Nc2ncnc3c2cnn3-c2ccccc2)ccc1O [Example 44, 4-Hydroxy-3-hydroxymethylbenzaldehyde (1-phenyl-1H-pyrazolo[3,4-d]pyrimidin-4-yl)hydrazone]
13 | 100 to 1000 | 100 to 1000 | COc1cc(/C=N/Nc2ncnc3c2cnn3-c2ccccc2)cc(Br)c1O [Example 48, 3-Bromo-4-hydroxy-3-methoxybenzaldehyde (1-phenyl-1H-pyrazolo[3,4-d]pyrimidin-4-yl)hydrazone]
14 | < 100 | 1000 to 10000 | [O-][n+]1ccc(/C=N/Nc2ncnc3c2cnn3-c2ccccc2)cc1 [Example 58, Pyridine-N-oxide-4-carboxaldehyde [1-(phenyl)-1H-pyrazolo[3,4-d]pyrimidin-4-yl]hydrazone]
15 | 1000 to 10000 | 1000 to 10000 | O=C(O)c1cccc(/C=N/Nc2ncnc3c2cnn3-c2ccccc2)c1 [Example 39, 3-{(E)-[(1-phenyl-1H-pyrazolo[3,4-d]pyrimidin-4-yl)hydrazono]methyl}benzoic Acid]
16 | < 100 | 100 to 1000 | O=C(NCCCN1CCOCC1)c1ccc(/C=N/Nc2ncnc3c2cnn3-c2ccccc2)cc1 [Example 27]
17 | 100 to 1000 | 100 to 1000 | CN(CCc1ccccn1)C(=O)c1ccc(/C=N/Nc2ncnc3c2cnn3-c2ccccc2)cc1 [Example 30, N-Methyl-4-{(E)-[(1-phenyl-1H-pyrazolo[3,4-d]pyrimidin-4-yl)hydrazono]methyl}-N-(2-pyridin-2-ylethyl)benzamide]
18 | 100 to 1000 | 1000 to 10000 | COc1cc(/C=N/Nc2ncnc3c2cnn3-c2ccccc2)cc(C(=O)O)c1O [Example 47, 3-Carboxy-4-Hydroxy-5-methoxybenzaldehyde (1-phenyl-1H-pyrazolo[3,4-d]pyrimidin-4-yl)hydrazone]
19 | 1000 to 10000 | 1000 to 10000 | OCc1ccc(/C=N/Nc2ncnc3c2cnn3-c2ccccc2)o1 [Example 51, 5-Hydroxymethyl-2-furaldehyde [1-(phenyl)-1H-pyrazolo[3,4-d]pyrimidin-4-yl]hydrazone]
20 | < 100 | 100 to 1000 | CN(C)CCNC(=O)c1ccc(/C=N/Nc2ncnc3c2cnn3-c2ccccc2)cc1 [Example 25, N-[2-(dimethylamino)ethyl]-4-{(E)-[(1-phenyl-1H-pyrazolo[3,4-d]pyrimidin-4-yl)hydrazono]methyl}benzamide]
21 | 100 to 1000 | 100 to 1000 | CN(C)CCN1CCN(C(=O)c2ccc(/C=N/Nc3ncnc4c3cnn4-c3ccccc3)cc2)CC1 [Example 35, 4-({4-[2-(Dimethylamino)ethyl]piperazin-1-yl}carbonyl)benzaldehyde (1-phenyl-1H-pyrazolo[3,4-d]pyrimidin-4-yl)hydrazone]
22 | 100 to 1000 | 1000 to 10000 | Oc1cccc(/C=N/Nc2ncnc3c2cnn3-c2ccccc2)c1 [Example 6, 3-Hydroxybenzaldehyde (1-phenyl-1H-pyrazolo[3,4-d]pyrimidin-4-yl)hydrazone]
23 | < 100 | 100 to 1000 | O=C(NCCN1CCCCC1)c1ccc(/C=N/Nc2ncnc3c2cnn3-c2ccccc2)cc1 [Example 33, 4-{(E)-[(1-phenyl-1H-pyrazolo[3,4-d]pyrimidin-4-yl)hydrazono]methyl}-N-(2-piperidin-1-ylethyl)benzamide]
24 | < 100 | 1000 to 10000 | C(=NNc1ncnc2c1cnn2-c1ccccc1)c1cccnc1 [Example 2, Nicotinaldehyde (1-phenyl-1H-pyrazolo[3,4-d]pyrimidin-4-yl)hydrazone]
25 | 100 to 1000 | 100 to 1000 | CC(=O)Nc1ccc(/C=N/Nc2ncnc3c2cnn3-c2ccccc2)cc1 [Example 52, 4-Acetamidobenzaldehyde [1-(phenyl)-1H-pyrazolo[3,4-d]pyrimidin-4-yl]hydrazone]
